Measurements reported in paper PMC8844858, “Crystal structure and functional analysis of mycobacterial erythromycin resistance methyltransferase Erm38 reveals its RNA-binding site” (The Journal of Biological Chemistry, 2022).
Read-outs that look alike come from different tables or passages of the source.

Molecular target: T1, Erm38 (Mycolicibacterium smegmatis, UniProt Q79N53)
T1 construct: gene erm(38); truncated, residues 13-261 of 386 (disordered termini removed), about 30 kDa; synthetic codon-optimised gene in pNIC28-Bsa4, E. coli BL21(DE3)-T1R Rosetta; IMAC, cation exchange and size exclusion
T1 sequence (Q79N53 entry or part of it): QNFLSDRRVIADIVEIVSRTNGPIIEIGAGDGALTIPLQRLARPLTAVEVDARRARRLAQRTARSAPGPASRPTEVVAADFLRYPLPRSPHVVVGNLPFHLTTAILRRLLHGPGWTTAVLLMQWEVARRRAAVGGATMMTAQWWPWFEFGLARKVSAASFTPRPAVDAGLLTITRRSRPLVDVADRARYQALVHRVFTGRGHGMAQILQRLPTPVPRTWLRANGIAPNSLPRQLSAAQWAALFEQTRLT
Conditions: 2.25 A, SAM-binding site

SMILES	X-ray crystal structure (soak) (2 mM SAM soaked 24 h into native crystals)	X-ray crystal structure (soak) (2 mM sinefungin soaked 24 h into native crystals)
C[S+](CC[C@H](N)C(=O)O)C[C@H]1O[C@@H](n2cnc3c(N)ncnc32)[C@H](O)[C@@H]1O (some centres unmarked) [SAM]	cocrystals with either SAM or the isosteric sinefungin inhibitor were obtained by soaking	–
Nc1ncnc2c1ncn2[C@@H]1O[C@H](C[C@@H](N)CC[C@H](N)C(=O)O)[C@@H](O)[C@H]1O [SFG, sinefungin]	–	cocrystals with either SAM or the isosteric sinefungin inhibitor were obtained by soaking
